The results in this text go back to the NIST ThermoML archive (doi:10.1016/j.fluid.2018.05.008).

For data set [1] the following is noted: 100 kPa, Liquid, Vibrating tube method.
Data set [2] is described as follows: xn = mol fraction of the nth substance listed. To be noted: 100 kPa, Liquid, Vibrating tube method, x2 = 0.333.

± gives the expanded uncertainty stated by the source.

Take `CCO` [ethanol]: the mass density in data set [1] (293.15 K) is recorded as 790.6 ± 1 kg/m3; in data set [1] (303.15 K) it was 781.9 ± 1 kg/m3; in data set [1] (313.15 K) it was 773.3 ± 1 kg/m3; in data set [1] (323.15 K), 764.4 ± 1 kg/m3; in data set [1] (333.15 K) it was 755.1 ± 1 kg/m3.
For `NC(N)=O` [urea] + C[N+](C)(C)CCO.[Cl-], the mass density in data set [2] (293.15 K) is 1199.7 ± 1.1 kg/m3; in data set [2] (303.15 K), 1194.2 ± 1.1 kg/m3; in data set [2] (313.15 K) it was 1188.6 ± 1.1 kg/m3; in data set [2] (323.15 K) it was 1183.2 ± 1.1 kg/m3; in data set [2] (333.15 K) it was 1178 ± 1.1 kg/m3.

For orientation: mass density means mass per unit of volume.
